Assay: xn = mol fraction of the nth substance listed

COCCOCCOC + CCCCCCCCC
viscosity [mPa·s], 101.33 kPa
Conditions	x1 = 0.0991	x1 = 0.2003	x1 = 0.3005	x1 = 0.3982	x1 = 0.5023	x1 = 0.5963	x1 = 0.6999	x1 = 0.7997	x1 = 0.897
298.15 K	0.642	0.64	0.665	0.691	0.712	0.747	0.794	0.836	0.898
308.15 K	0.559	0.56	0.579	0.6	0.618	0.647	0.685	0.718	0.768
318.15 K	0.49	0.49	0.507	0.523	0.538	0.561	0.591	0.62	0.662

ClC(Cl)C(Cl)Cl + CCCCCCCCC
303.15 K, 101 kPa
Conditions	viscosity [mPa·s]
x1 = 0.1552	0.651
x1 = 0.2636	0.704
x1 = 0.3332	0.742
x1 = 0.3926	0.77
x1 = 0.5196	0.836
x1 = 0.5976	0.879
x1 = 0.6903	0.943
x1 = 0.7468	0.991
x1 = 0.8858	1.163
x1 = 0.9204	1.235

COCCOCCOC + CCCCCCCCCC
viscosity [mPa·s], 101.33 kPa
Conditions	x1 = 0.1008	x1 = 0.2018	x1 = 0.3025	x1 = 0.3984	x1 = 0.4993	x1 = 0.6592	x1 = 0.701	x1 = 0.7987	x1 = 0.9013
298.15 K	0.798	0.788	0.787	0.79	0.8	0.834	0.846	0.869	0.915
308.15 K	0.689	0.682	0.679	0.68	0.688	0.716	0.726	0.746	0.784
318.15 K	0.597	0.59	0.589	0.589	0.597	0.618	0.627	0.643	0.674

COCCOCCOC + CCCCCCCCCCCC
viscosity [mPa·s], 101.33 kPa
Conditions	x1 = 0.1009	x1 = 0.1998	x1 = 0.2993	x1 = 0.4034	x1 = 0.5021	x1 = 0.6015	x1 = 0.7024	x1 = 0.8008	x1 = 0.9003
298.15 K	1.236	1.157	1.11	1.074	1.043	1.02	1.001	0.981	0.98
308.15 K	1.038	0.976	0.94	0.909	0.884	0.865	0.849	0.837	0.835
318.15 K	0.88	0.83	0.801	0.78	0.757	0.743	0.728	0.72	0.719

COCCOCCOC + CCCCCCCCCCCCCC
viscosity [mPa·s], 101.33 kPa
Conditions	x1 = 0.0987	x1 = 0.2023	x1 = 0.302	x1 = 0.4002	x1 = 0.5033	x1 = 0.594	x1 = 0.6981	x1 = 0.7958	x1 = 0.8986
298.15 K	1.835	1.672	1.55	1.448	1.345	1.275	1.187	1.113	1.044
308.15 K	1.503	1.38	1.29	1.205	1.122	1.068	0.996	0.938	0.888
318.15 K	1.248	1.153	1.07	1.009	0.945	0.902	0.848	0.8	0.76

Reference: the CheMixHub viscosity set
